The subject of series [1] is DG-75. Kind of series: Antioxidant activity against ferrous ion-induced oxidative stress in human DG75 cells assessed as decrease in malondialdehyde formation at 20 ug/mL pretreated for 4 hrs before Fe2+ challenge by TBARS assay. The series is classed as functional, cell-based.
The test system of a further series is Staphylococcus aureus. In words: Antibacterial activity against Staphylococcus aureus ATCC 9144 after 24 to 72 hrs at 37 degC by broth dilution susceptibility test. The series is classed as functional.
A further series relates to Salmonella enterica. Kind of series: Antibacterial activity against Salmonella enterica CIP 80.39 after 24 to 72 hrs at 37 degC by broth dilution susceptibility test. The series is classed as functional.
Series [2] deals with HeLa. Kind of series: Antioxidant activity against ferrous ion-induced oxidative stress in human HeLa cells assessed as decrease in malondialdehyde formation at 10 ug/mL pretreated for 4 hrs before Fe2+ challenge by TBARS assay. The format is functional, cell-based.
Another series relates to PBL. In words: Cytotoxicity against human PBL after 48 hrs by MTT assay. The format is cell-based.
Another series has as its system Candida albicans. Kind of series: Antifungal activity against Candida albicans ATCC 10231 after 24 to 72 hrs at 28 degC by broth dilution susceptibility test. The format is functional.
Series [3] can be described thus: Antioxidant activity assessed as ferric ion reducing activity by FRAP assay. The series is classed as functional.
The subject of series [4] is Radical scavenging activity. Kind of series: Antioxidant activity assessed as DPPH radical scavenging activity after 30 mins. The format is functional.
A further series relates to Aspergillus niger. In words: Antifungal activity against Aspergillus niger ATCC 16404 after 24 to 72 hrs at 28 degC by broth dilution susceptibility test. The format is functional.
The nature of series [5]: Antioxidant activity assessed as trolox equivalent of ABTS radical scavenging activity. The series is classed as functional.
Series [6] has as its system HeLa. Kind of series: Antioxidant activity against ferrous ion-induced oxidative stress in human HeLa cells assessed as decrease in malondialdehyde formation at 20 ug/mL pretreated for 4 hrs before Fe2+ challenge by TBARS assay. The format is functional, cell-based.
The test system of the next series is Escherichia coli. Kind of series: Antibacterial activity against Escherichia coli ATCC 10536 after 24 to 72 hrs at 37 degC by broth dilution susceptibility test. The format is functional.
Another series concerns Pseudomonas aeruginosa. Kind of series: Antibacterial activity against Pseudomonas aeruginosa ATCC 15442 after 24 to 72 hrs at 30 degC by broth dilution susceptibility test. The format is functional.
Series [7] deals with DG-75. Kind of series: Antioxidant activity against ferrous ion-induced oxidative stress in human DG75 cells assessed as decrease in malondialdehyde formation at 10 ug/mL pretreated for 4 hrs before Fe2+ challenge by TBARS assay. The format is functional, cell-based.
A further series concerns Bacillus subtilis. Kind of series: Antibacterial activity against Bacillus subtilis ATCC 6633 after 24 to 72 hrs at 30 degC by broth dilution susceptibility test. The format is functional.
In series [8] the test system is DG-75. Kind of series: Cytotoxicity against human DG75 cells after 48 hrs by MTT assay. The format is functional, cell-based. The following applies: for IC50: DG-75, 48 h.
The subject of series [9] is HeLa. Kind of series: Cytotoxicity against human HeLa cells after 48 hrs by MTT assay. The format is functional, cell-based.

Values after ≈ are worked out from the molar mass of the structure shown. Active and inactive are the calls of the source. The calls are words filed in the database; no cut-off is given here.

In the case of `OCCc1ccc(O)c(O)c1` [HYDROXYTYROSOL], the result (in the series on DG-75 [1]; in the series on HeLa [2]; in series [3]; in the series on HeLa [6]; in the series on DG-75 [7]) was Active. For the same compound, the MIC is 62.5 µg/mL (≈ 405 µM) in the series with Staphylococcus aureus; 125 µg/mL (≈ 811 µM) against Salmonella enterica; 125 µg/mL (≈ 811 µM) against Candida albicans; 250 µg/mL (≈ 1620 µM) against Aspergillus niger; 125 µg/mL (≈ 811 µM) against Escherichia coli; 125 µg/mL (≈ 811 µM) against Pseudomonas aeruginosa. This compound also yielded an MIC with Bacillus subtilis of 62.5 µg/mL (≈ 405 µM). Moreover, the Activity result in the series on PBL is “Not Active”; in [5], 3.4 mmol; in the series on DG-75 [8], “Dose-dependent effect”; with HeLa [9], “Dose-dependent effect”. Besides, the concentration for half-maximal inhibition (IC50) stood at 3.71 µg/mL (≈ 24.1 µM) in [4], 58 µg/mL (≈ 376 µM) in the series with DG-75 [8] and 70 µg/mL (≈ 454 µM) with HeLa [9].

Regarding `CC(=O)OCCc1ccc(OC(C)=O)c(OC(C)=O)c1`, the MIC with Salmonella enterica is 250 µg/mL (≈ 892 µM); against Candida albicans, 500 µg/mL (≈ 1780 µM); with Aspergillus niger it was 500 µg/mL (≈ 1780 µM); with Escherichia coli, 250 µg/mL (≈ 892 µM); with Pseudomonas aeruginosa, 250 µg/mL (≈ 892 µM); against Bacillus subtilis, 125 µg/mL (≈ 446 µM). Further, the Activity entry in the series on PBL was “Not Active”; in the series on DG-75 [8], “Dose-dependent effect”; in the series with HeLa [9] it was “Dose-dependent effect”. For the same compound, the outcome in series [3], in [4] and in series [5] was inactive. For the same compound, the IC50 with DG-75 [8] was 27 µg/mL (≈ 96.3 µM); in the series on HeLa [9] it was 92 µg/mL (≈ 328 µM).

`Cc1cc(C(C)(C)C)c(O)c(C(C)(C)C)c1` [BUTYLATED HYDROXYTOLUENE]: the IC50 in [4] worked out at 7.94 µg/mL (≈ 36 µM). Also, the Activity in series [5] came to 2.37 mmol.
